Source: publication PMC6563162 (Viruses, 2019)

How the values were obtained:
Test in all cases: flow cytometry, inhibition of purified knob binding to HCE cells
Format in all cases: cell-based
Details in all cases: knob preincubated with ME0462, 1 h, 4 °C; human corneal epithelial cells
[1] = target: T1, HAdV-D8/53 fiber knob (Human adenovirus D8, UniProt P36845)
T1 construct: gene L5

[2] = target: T2, HAdV-D54 fiber knob (Human adenovirus 54, UniProt B9A5P2)
T2 construct: gene L5

[3] = target: T3, HAdV-D37/64 fiber knob (Human adenovirus D37, UniProt Q64823)
T3 construct: gene L5; N-terminal RGS-His tag kept (pQE30-Xa); E. coli M15; Ni-NTA and Q-sepharose

ME0462
% inhibition at 80 μM [1]: 60%
% inhibition at 80 μM [2]: 60%
% inhibition at 80 μM [3]: 70%
